Values quoted from earlier work, collected in US20050009919A1, “Treating cachexia and excessive catabolism with (-)-hydroxycitric acid” (priority 2003, published 2005).

Row | Compound | Anorectic results in clinical trials (1.2 grams to 3 grams of HCA per day, divided doses before meals) | Appetite suppression in clinical trials (Heymsfield 1998, Mattes 2000) | Weight change in clinical trials (Heymsfield 1998, Mattes 2000)
1 | calcium (−)-hydroxycitrate [reference compound] | failed to produce anorectic results | – | –
2 | O=C(O)CC(O)(C(=O)O)C(O)C(=O)O (single isomer, unassigned; (-)) [HCA, (−)-Hydroxycitric acid] | – | failed to produce appetite suppression | not-statistically-significant trends toward weight elevation
